Results: US7728158B2, “PPAR activity regulators” (Ajinomoto Co., Inc., priority 2006, dated 2010)

Assays:
[1] = molecular target: T1, PPAR-γ (Homo sapiens, UniProt P37231); test: PPAR-γ reporter assay (GAL4 luciferase, CV-1 cells); assay type: cell-based; settings: induction ratio of luciferase activity at 25 μM, activity without tested compound = 1, hGR-GAL4-hPPAR-γ
T1 construct: expressed in transfected cells; host or cells: CV-1 (African green monkey kidney)
T1 sequence (P37231 204-505): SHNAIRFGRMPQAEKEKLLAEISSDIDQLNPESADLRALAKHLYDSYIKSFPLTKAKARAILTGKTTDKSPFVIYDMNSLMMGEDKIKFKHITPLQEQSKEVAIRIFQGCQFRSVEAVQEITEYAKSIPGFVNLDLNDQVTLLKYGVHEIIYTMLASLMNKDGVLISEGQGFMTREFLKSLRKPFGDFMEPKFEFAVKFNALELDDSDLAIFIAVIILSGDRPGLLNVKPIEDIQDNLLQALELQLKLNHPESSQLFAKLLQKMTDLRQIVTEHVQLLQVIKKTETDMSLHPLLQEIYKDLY
Description: The reporter assay of PPAR-γ was conducted by using the following plasmids in accordance with the known report (Steven A. Kliwer et al., The Journal of Biological Chemistry Vol. 270, No. 22: 12953-12956, 1995).
As luciferase expressing plasmid, used was the plasmid which introduces the sequence wherein 5 yeast GAL4 binding sequences, UAS, are tandemly connected to the upstream of the thymidine kinase promoter of pTAL-Luc (#6252-1, produced by Clontech) (UAS×5-TK-Luc) (1).
(§1) As PPAR-γ receptor expressing plasmid, used was the plasmid which introduces the N-terminal domain of human GR (1-76aa), the yeast GAL4 DNA binding domain (1-147aa) and PPAR-γ2 ligand binding domain (204-505aa) to NotI site and SalI site of pExchange-1 core vector (#211176, produced by Stratagene) (hGR-GAL4-hPPAR-γ) (2). The plasmid mixed solution used in the reporter assay of PPAR-γ contains above (1), (2) and plasmid pcDNA3.1(−) as a carrier in the weight ratio of 4:1:3.
(§2) CV-1 cells were seeded on the 384-well white plate (781080, produced by Greiner) to become 1.5×10^4 cells/30 μL per one well. Then, gene transfer was conducted in accordance with the manual by using OPTI-MEM I (11058-021, produced by GIBCO), FuGENE6 (1-815-075, produced by Roche) and the above PPAR-γ plasmid mixed solution. The incubation was conducted in a carbon-dioxide incubator at 37° C. for 6 to 8 hours. Then, a diluted tested compound was added thereto and incubated in a carbon-dioxide incubator at 37° C. for 16 to 18 hours. Britelite (6016979, produced by PerkinElmer) was further added thereto and stirred, and the luciferase activity was measured with EnVision (produced by PerkinElmer).
(§3) Specifying the luciferase activity without addition of a tested compound as 1, the induction ratio of the luciferase activity by each tested compound was calculated.

[2] = molecular target: T2, PPAR-α (Homo sapiens, UniProt Q07869); test: PPAR-α reporter assay (GAL4 luciferase, CV-1 cells); assay type: cell-based; settings: induction ratio of luciferase activity at 50 μM, activity without tested compound = 1, hGR-GAL4-hPPAR-α
T2 construct: expressed in transfected cells; host or cells: CV-1 (African green monkey kidney)
T2 sequence (Q07869 167-468): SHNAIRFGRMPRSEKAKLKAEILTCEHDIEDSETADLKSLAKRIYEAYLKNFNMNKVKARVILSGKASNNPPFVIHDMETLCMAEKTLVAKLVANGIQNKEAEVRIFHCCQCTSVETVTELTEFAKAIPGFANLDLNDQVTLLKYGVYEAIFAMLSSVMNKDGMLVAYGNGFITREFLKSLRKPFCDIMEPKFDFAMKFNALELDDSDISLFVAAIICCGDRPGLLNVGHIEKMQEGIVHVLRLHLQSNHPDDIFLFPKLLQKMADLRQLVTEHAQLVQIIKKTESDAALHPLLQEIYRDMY
Description: The reporter assay of PPAR (peroxisome proliferator-activated receptor)-α was conducted by using the following plasmids in accordance with the known report (Steven A. Kliwer et al., The Journal of Biological Chemistry Vol. 270, No. 22: 12953-12956, 1995).
As luciferase expressing plasmid, used was the plasmid which introduces the sequence wherein 5 yeast GAL4 binding sequences, UAS (upstream activating sequence), are tandemly connected to the upstream of the thymidine kinase promoter of pTAL-Luc (#6252-1, produced by Clontech) (UAS×5-TK-Luc) (1).
as §1, with “PPAR-α” for “PPAR-γ”, “PPAR-α” for “PPAR-γ2”, “(167-468aa)” for “(204-505aa)”, “(hGR-GAL4-hPPAR-α)” for “(hGR-GAL4-hPPAR-γ)”
The medium having the following composition was used for seeding cell line CV-1 used in the reporter assay, derived from the kidney of an African green monkey, on the plate; and for diluting the tested compounds. Used was Dulbecco modified Eagle medium (D2902 without phenol red, produced by SIGMA) to which 3.7 g/L of NaHCO3, 3.5 g/L of D-glucose and 10% v/v fetal bovine serum were added.
as §2, with “PPAR-α” for “PPAR-γ”
as §3

CCCCCCCCCCCC(=O)NC(C)C(=O)O (racemic) [Example 13]
PPAR-γ induction ratio [1]: 15.4
PPAR-α induction ratio [2]: 25.0

CCCCCCCCCCCC(=O)NC(C)(CC)C(=O)O (racemic) [Example 16]
PPAR-γ induction ratio [1]: 18.5
PPAR-α induction ratio [2]: 23.0

CCCCCCCCCCCC(=O)NC(C)(C(=O)O)C(C)C (racemic) [Example 18]
PPAR-γ induction ratio [1]: 24.0
PPAR-α induction ratio [2]: 39.0

CCCCCCCCCCCC(=O)NC(C(N)=O)C(C)C (racemic) [Example 21]
PPAR-γ induction ratio [1]: 19.2
PPAR-α induction ratio [2]: 45.0

CCCCCCCCCCCCNC(=O)C(NC(=O)CCCCCCCCCCC)C(C)C (racemic) [Example 22]
PPAR-γ induction ratio [1]: 16.6
PPAR-α induction ratio [2]: 44.0

CCCCCCCCCCCC(=O)N[C@H](C(=O)NC1CCCCC1)C(C)C (racemic) [Example 23, N-lauroyl-L-valine cyclohexylamide]
PPAR-γ induction ratio [1]: 21.3
PPAR-α induction ratio [2]: 63.0

CCCCCCCCCCCC(=O)NC(C(=O)O)C(C(F)(F)F)C(F)(F)F (racemic) [Example 34]
PPAR-γ induction ratio [1]: 2.7
PPAR-α induction ratio [2]: 2.3

CCCCCCCCCCCC(=O)NC(Cc1ccccc1C)C(=O)O (racemic) [Example 38]
PPAR-γ induction ratio [1]: 3.2
PPAR-α induction ratio [2]: 2.8

CCCCCCCCCCCC(=O)NC(C)(Cc1ccccc1)C(=O)O (racemic) [Example 41]
PPAR-γ induction ratio [1]: 5.1
PPAR-α induction ratio [2]: 7.3

CCCCCCCC(=O)N[C@H](C(=O)O)C(C)C [Example 1]
PPAR-γ induction ratio [1]: 11.9
PPAR-α induction ratio [2]: 1.5

CCCCCCCCC(=O)N[C@H](C(=O)O)[C@@H](C)CC [Example 2]
PPAR-γ induction ratio [1]: 12.5
PPAR-α induction ratio [2]: 2.1

CCCCCCCCC(=O)N[C@@H](CC(C)C)C(=O)O [Example 3]
PPAR-γ induction ratio [1]: 6.1
PPAR-α induction ratio [2]: 0.9

CCCCCCCCC(=O)N[C@H](C(=O)O)C(C)C [Example 4]
PPAR-γ induction ratio [1]: 12.9
PPAR-α induction ratio [2]: 3.1

CCCCCCCCCC(=O)N[C@H](C(=O)O)[C@@H](C)CC [Example 5]
PPAR-γ induction ratio [1]: 15.9
PPAR-α induction ratio [2]: 3.5

CCCCCCCCCC(=O)N[C@@H](CC(C)C)C(=O)O [Example 6]
PPAR-γ induction ratio [1]: 9.5
PPAR-α induction ratio [2]: 1.3

C=CCCCCCCCCC(=O)N[C@@H](CC(C)C)C(=O)O [Example 7]
PPAR-γ induction ratio [1]: 11.5
PPAR-α induction ratio [2]: 2.7

C=CCCCCCCCCC(=O)N[C@@H](Cc1ccccc1)C(=O)O [Example 8]
PPAR-γ induction ratio [1]: 4.4
PPAR-α induction ratio [2]: 1.3

CCCCCCCCCC(=O)N[C@H](C(=O)O)C(C)C [Example 9]
PPAR-γ induction ratio [1]: 25.4
PPAR-α induction ratio [2]: 19.0

C=CCCCCCCCCC(=O)N[C@H](C(=O)O)C(C)C [Example 10]
PPAR-γ induction ratio [1]: 15.3
PPAR-α induction ratio [2]: 23.0

CCCCCCCCCCC(=O)N[C@@H](CC(C)C)C(=O)O [Example 11]
PPAR-γ induction ratio [1]: 11.6
PPAR-α induction ratio [2]: 3.0

CCCCCCCCCCC(=O)N[C@@H](Cc1ccccc1)C(=O)O [Example 12]
PPAR-γ induction ratio [1]: 4.2
PPAR-α induction ratio [2]: 1.4

CCCCCCCCCCCC(=O)N[C@H](C(=O)O)[C@@H](C)CC [Example 14]
PPAR-γ induction ratio [1]: 20.5
PPAR-α induction ratio [2]: 51.0

CCCCCCCCCCCC(=O)N[C@@H](CC(C)C)C(=O)O [Example 15]
PPAR-γ induction ratio [1]: 9.7
PPAR-α induction ratio [2]: 11.0

CCCCCCCCCCCC(=O)NC(C)(C)C(=O)O [Example 17]
PPAR-γ induction ratio [1]: 20.3
PPAR-α induction ratio [2]: 32.0

CCCCCCCCCCCC(=O)N[C@@H](CCSC)C(=O)O [Example 19]
PPAR-γ induction ratio [1]: 20.9
PPAR-α induction ratio [2]: 24.0

CCCCCCCCCCCC(=O)N[C@H](C(=O)O)C(C)C [Example 20, N-lauroyl-L-valine]
PPAR-γ induction ratio [1]: 19.1
PPAR-α induction ratio [2]: 52.0

CCCCCCCCCCCC(=O)N(CC)[C@H](C(=O)O)C(C)C [Example 24]
PPAR-γ induction ratio [1]: 16.4
PPAR-α induction ratio [2]: 46.0

CCCCCCCCCCCCCC(=O)N[C@H](C(=O)O)[C@@H](C)CC [Example 25]
PPAR-γ induction ratio [1]: 27.4
PPAR-α induction ratio [2]: 50.0

CCCCCCCCCCCCCC(=O)N[C@@H](CC(C)C)C(=O)O [Example 26]
PPAR-γ induction ratio [1]: 21.0
PPAR-α induction ratio [2]: 33.0

CCCCCCCCCCCCCCCC(=O)N[C@@H](CC(C)C)C(=O)O [Example 27]
PPAR-γ induction ratio [1]: 11.7
PPAR-α induction ratio [2]: 2.5

CCCCCCCCCCCCCCCC(=O)N[C@H](C(=O)O)C(C)C [Example 28]
PPAR-γ induction ratio [1]: 17.1
PPAR-α induction ratio [2]: 29.0

CCCCCCCCCCCCCCCCCC(=O)N[C@@H](CC(C)C)C(=O)O [Example 29]
PPAR-γ induction ratio [1]: 12.3
PPAR-α induction ratio [2]: 1.6

CCCCCCCCCCCCCCCCCC(=O)N[C@H](C(=O)O)C(C)C [Example 30]
PPAR-γ induction ratio [1]: 13.7
PPAR-α induction ratio [2]: 15.0

CCCCCCCCCCCCCCCCCCCCCC(=O)N[C@H](C(=O)O)C(C)C [Example 31]
PPAR-γ induction ratio [1]: 4.4
PPAR-α induction ratio [2]: 1.2

CCCCCCCCCC(=O)N[C@H](C(=O)O)C(C)(C)C [Example 32]
PPAR-γ induction ratio [1]: 15.2
PPAR-α induction ratio [2]: 31.5

CCCCCCCCCCCC(=O)N[C@H](C(=O)O)C(C)(C)C [Example 33]
PPAR-γ induction ratio [1]: 30.2
PPAR-α induction ratio [2]: 81.0

CCCCCCCCCCCC(=O)N[C@H](C(=O)O)[C@H](C)CC [Example 35]
PPAR-γ induction ratio [1]: 21.1
PPAR-α induction ratio [2]: 54.7

CCCCCCCCCCCC(=O)N[C@H](C(=O)O)c1ccccc1 [Example 36]
PPAR-γ induction ratio [1]: 8.7
PPAR-α induction ratio [2]: 12.5

CCCCCCCCCCCC(=O)N[C@@H](Cc1ccc(OC)cc1)C(=O)O [Example 37]
PPAR-γ induction ratio [1]: 19.5
PPAR-α induction ratio [2]: 24.5

CCCCCCCCCCCC(=O)N[C@H](C(=O)O)C1CCCCC1 [Example 39]
PPAR-γ induction ratio [1]: 11.2
PPAR-α induction ratio [2]: 2.3

CCCCCCCCCCCC(=O)N[C@H](C(=O)O)C(c1ccccc1)c1ccccc1 [Example 40]
PPAR-γ induction ratio [1]: 1.5
PPAR-α induction ratio [2]: 2.0
